Source: US12545658B2, “Pyridine derivatives as calcium-activated chloride channel modulators” (TMEM16A LIMITED, priority 2019, dated 2026)

Biological target: T1, human TMEM16A (TMEM16Aabc variant) (Homo sapiens, UniProt Q5XXA6)
T1 construct: human TMEM16A (TMEM16Aabc variant)
T1 sequence (Q5XXA6 1-986): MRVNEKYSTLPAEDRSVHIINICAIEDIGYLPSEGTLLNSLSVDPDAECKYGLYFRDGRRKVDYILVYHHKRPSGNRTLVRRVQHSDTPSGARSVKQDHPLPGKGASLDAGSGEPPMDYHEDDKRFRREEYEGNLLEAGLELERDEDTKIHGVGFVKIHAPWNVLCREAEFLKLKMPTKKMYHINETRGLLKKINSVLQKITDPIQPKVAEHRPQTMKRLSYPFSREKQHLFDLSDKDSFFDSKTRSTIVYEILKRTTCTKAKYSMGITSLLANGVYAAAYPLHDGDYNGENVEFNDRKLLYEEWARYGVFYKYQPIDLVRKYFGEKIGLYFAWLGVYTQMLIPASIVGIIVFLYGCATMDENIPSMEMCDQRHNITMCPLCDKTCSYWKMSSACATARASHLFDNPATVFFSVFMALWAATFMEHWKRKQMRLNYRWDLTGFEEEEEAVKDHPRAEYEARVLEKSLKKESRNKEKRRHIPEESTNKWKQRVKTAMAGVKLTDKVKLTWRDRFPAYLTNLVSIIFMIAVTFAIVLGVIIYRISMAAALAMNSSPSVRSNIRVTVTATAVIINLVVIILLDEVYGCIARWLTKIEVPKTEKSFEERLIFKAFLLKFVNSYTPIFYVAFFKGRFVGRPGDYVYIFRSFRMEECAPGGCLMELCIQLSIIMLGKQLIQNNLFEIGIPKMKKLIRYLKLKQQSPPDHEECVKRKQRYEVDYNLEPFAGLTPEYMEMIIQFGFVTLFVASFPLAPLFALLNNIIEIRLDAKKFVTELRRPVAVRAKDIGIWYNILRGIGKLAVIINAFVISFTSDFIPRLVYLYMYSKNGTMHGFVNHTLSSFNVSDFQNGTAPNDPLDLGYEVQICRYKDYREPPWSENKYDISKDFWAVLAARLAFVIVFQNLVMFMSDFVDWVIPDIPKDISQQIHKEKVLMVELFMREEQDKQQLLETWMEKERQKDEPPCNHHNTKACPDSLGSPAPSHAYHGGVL
Experiment: Automated whole-cell patch clamp (QPatch) TMEM16A potentiator assay in FRT cells stably expressing human TMEM16A
Format: cell-based
Details: for QPatch TMEM16A % Potentiation @ 370 nM: 370 nM test compound; for QPatch TMEM16A % Potentiation @ 370 nM / QPatch TMEM16A % Potentation @ 3.3 μM: percentage increase of baseline TMEM16A current; for QPatch TMEM16A % Potentation @ 3.3 μM: 3.3 μM test compound; for EC50: FRT-TMEM16A cells, whole-cell patch clamp, peak current at +70 mV, intracellular calcium at EC20
Experimental: Fisher rat thyroid (FRT) cells stably expressing human TMEM16A (TMEM16Aabc variant; Dr Luis Galietta, Insituto Giannina, Italy) were cultured in T-75 flasks in Hams F-12 media with Coon's modification (Sigma) supplemented with 10% (v/v) foetal bovine serum, penicillin-streptomycin (10,000 U/mL/10000 μg/mL), G-418 (750 μg/mL), L-glutamine (2 mM) and sodium bicarbonate solution (7.5% v/v). At ˜90% confluence cells were harvested for experiments by detachment with a 2:1 (v/v) mixture of Detachin (BMS Biotechnology) and 0.25% (w/v) trypsin-EDTA.
FRT-TMEM16A cells were whole-cell patch clamped using an automated planar patch clamp system (Qpatch, Sophion). Briefly, once high resistance (GOhm) seals were established between the cells and the planar recording array the patch was ruptured using suction pulses to establish the whole-cell recording configuration of the patch clamp technique. The assay employed the following solutions (all reagents Sigma): Intracellular solution (mM): N-methyl-D-glucamine 130, CaCl2 18.2, MgCl2 1, HEPES 10, EGTA 10, BAPTA 20, Mg-ATP 2, pH 7.25, 325 mOsm with sucrose.
Extracellular solution (mM): N-methyl-D-glucamine 130, CaCl2 2, MgCl2 1, HEPES 10, pH 7.3, 320 mOsm with sucrose.
The intracellular solution buffers intracellular calcium at levels required to give ˜20% activation of the maximal TMEM16A mediated current (EC20 for calcium ions). Cells were voltage clamped at a holding potential of −70 mV and a combined voltage step (to +70 mV)/ramp (−90 my to +90 mV) was applied at 0.05 Hz. After a period of current stabilisation test compounds, solubilised in 100% (v/v) DMSO and subsequently diluted into extracellular solution, were applied to generate a cumulative concentration response curve. Each concentration of test compound was incubated for 5 minutes before addition of the next concentration. After the final concentration was tested a supramaximal concentration of either a known active positive modulator or the TMEM16A inhibitor, CaCCinhA01 (Del La Fuente et al, 2008) was added to define the upper and lower limits of the assay.
Compound activity was quantified by measuring the increase in current upon compound addition and expressing this as a percentage increase of baseline TMEM16A current level.
In FIG. 1, IBL equals baseline current, I[#1] equals the peak current during test compound concentration 1 incubation period and so on.
Peak TMEM16A current at +70 mV was plotted as a function of time over the assay period. Baseline current (IBL) was measured after a period of stabilisation. The increase in current for each compound addition was determined by taking the peak current during the incubation period and subtracting the current from the previous recording period and then expressing this as a percentage of the baseline current (% potentiation). For test compound concentration 1 in FIG. 1 this is: (I[#1]−IBL/IBL)×100 For each additional concentration tested the increase in current was determined by subtracting the current from the previous incubation period and normalising the baseline value—for test concentration 2 in FIG. 1 this is: (I[#2]−I[#1])/IBL)×100 The values for each test concentration were plotted as a cumulative function of concentration eg. for test concentration two this would be the sum of the peak changes measured during concentration one plus concentration two.

Structure (SMILES) | QPatch TMEM16A % Potentiation @ 370 nM [%] | QPatch TMEM16A % Potentation @ 3.3 μM [%] | EC50 [nM] | EC50 compared with Compound B (indole compounds versus comparator Compound B) | maximum potentiation of TMEM16A compared with Compound B (versus comparator Compound B)
C#CC(C)(C)NC(=O)c1cc(NC(=O)Cc2cccc3[nH]ncc23)ccn1 [Compound A, reference compound] | 43 | 223 | 1930 | – | –
C#CC(C)(C)NC(=O)c1cc(NC(=O)Cc2ccc3cc[nH]c3c2)ccn1 [Example 1, N-(1,1-Dimethylprop-2-ynyl)-4-[[2-(1H-indol-6-yl)acetyl]amino]pyridine-2-carboxamide] | 50 | 38 | 20 | lower EC50 values than Compound B | –
O=C(Cc1ccc2cc[nH]c2c1)Nc1ccnc(C(=O)NC2(C(F)(F)F)CC2)c1 [Example 1.1, 4-[[2-(1H-indol-6-yl)acetyl]amino]-N-[1-(trifluoromethyl)cyclopropyl]pyridine-2-carboxamide] | 145 | 173 | 70 | – | improved maximum potentiation of TMEM16A
CC(C)(C)NC(=O)c1cc(NC(=O)Cc2ccc3cn[nH]c3c2)ccn1 [Example 2, N-tert-Butyl-4-[[2-(1H-indazol-6-yl)acetyl]amino]pyridine-2-carboxamide] | 87 | 131 | 180 | – | –
C#CC(C)(C)NC(=O)c1cc(NC(=O)Cc2ccc3cn[nH]c3c2)ccn1 [Example 3, N-(1,1-Dimethylprop-2-ynyl)-4-[[2-(1H-indazol-6-yl)acetyl]amino]pyridine-2-carboxamide] | 68 | 96 | 20 | – | –
C#CC1(NC(=O)c2cc(NC(=O)Cc3ccc4cn[nH]c4c3)ccn2)CCCC1 [Example 4, N-(1-Ethynylcyclopentyl)-4-[[2-(1H-indazol-6-yl)acetyl]amino]pyridine-2-carboxamide] | 96 | 237 | 10 | – | –
CC(C)(NC(=O)c1cc(NC(=O)Cc2ccc3cn[nH]c3c2)ccn1)C(F)(F)F [Example 4.1, 4-[[2-(1H-Indazol-6-yl)acetyl]amino]-N-(2,2,2-trifluoro-1,1-dimethyl-ethyl)pyridine-2-carboxamide] | 96 | 118 | 90 | – | –
O=C(Cc1ccc2cn[nH]c2c1)Nc1ccnc(C(=O)NC2(C(F)(F)F)CC2)c1 [Example 4.2, 4-[[2-(1H-Indazol-6-yl)acetyl]amino]-N-[1-(trifluoromethyl)cyclopropyl]pyridine-2-carboxamide] | 112 | 155 | 100 | – | –
CC1(NC(=O)c2cc(NC(=O)Cc3ccc4cn[nH]c4c3)ccn2)CC(F)(F)C1 [Example 4.3, N-(3,3-Difluoro-1-methyl-cyclobutyl)-4-[[2-(1H-indazol-6-yl)acetyl]amino]pyridine-2-carboxamide] | 173 | 226 | 50 | – | –
CC(C)(NC(=O)c1cc(NC(=O)Cc2ccc3cn[nH]c3c2)ccn1)C(F)F [Example 5, N-(2,2-Difluoro-1,1-dimethyl-ethyl)-4-[[2-(1H-indazol-6-yl)acetyl]amino] pyridine-2-carboxamide] | 80 | 104 | 110 | – | –
O=C(Cc1ccc2cn[nH]c2c1)Nc1ccnc(C(=O)NC2(C(F)(F)F)CCC2)c1 [Example 5.1, 4-[[2-(1H-Indazol-6-yl)acetyl]amino]-N-[1-(trifluoromethyl)cyclobutyl]pyridine-2-carboxamide] | 76 | 110 | 150 | – | –
O=C(Cc1ccc2cn[nH]c2c1)Nc1ccnc(C(=O)NC2CCCC2(F)F)c1 (centres unmarked) [Example 5.3, N-(2,2-Difluorocyclopentyl)-4-[[2-(1H-indazol-6-yl)acetyl]amino]pyridine-2-carboxamide] | 69 | 113 | 250 | – | –
CC(C)(C)NC(=O)c1cc(NC(=O)Cc2cc3[nH]ncc3cc2F)ccn1 [Example 6, N-tert-Butyl-4-[[2-(5-fluoro-1H-indazol-6-yl)acetyl]amino]pyridine-2-carboxamide] | 91 | 164 | 230 | – | –
O=C(Cc1cc2[nH]ncc2cc1F)Nc1ccnc(C(=O)NC2(C(F)(F)F)CC2)c1 [Example 6.1, 4-[[2-(5-Fluoro-1H-indazol-6-yl)acetyl]amino]-N-[1-(trifluoromethyl)cyclopropyl]pyridine-2-carboxamide] | 107 | 153 | 140 | – | –
O=C(Cc1cc2[nH]ncc2cc1F)Nc1ccnc(C(=O)NC2CCCC2(F)F)c1 (centres unmarked) [Example 6.2, N-(2,2-Difluorocyclopentyl)-4-[[2-(5-fluoro-1H-indazol-6-yl)acetyl]amino]pyridine-2-carboxamide] | 46 | 70 | 310 | – | –
O=C(Cc1cc(Cl)c2cn[nH]c2c1)Nc1ccnc(C(=O)NC2(C(F)(F)F)CC2)c1 [Example 6.3, 4-[[2-(4-Chloro-1H-indazol-6-yl)acetyl]amino]-N-[1-(trifluoromethyl)cyclopropyl]pyridine-2-carboxamide] | 172 | 220 | 110 | – | –
C#CC1(NC(=O)c2cc(NC(=O)Cc3cc(Cl)c4cn[nH]c4c3)ccn2)CCCC1 [Example 6.4, 4-[[2-(4-Chloro-1H-indazol-6-yl)acetyl]amino]-N-(1-ethynylcyclopentyl) pyridine-2-carboxamide] | 55 | 78 | 20 | – | –
CC(C)(C)NC(=O)c1cc(NC(=O)Cc2cc(F)c3cn[nH]c3c2)ccn1 [Example 7, N-tert-Butyl-4-[[2-(4-fluoro-1H-indazol-6-yl)acetyl]amino]pyridine-2-carboxamide] | 88 | 95 | 70 | – | –
